Consider five compounds from US5538834A, “Blocked photographically useful compounds for use with peroxide-containing processes” (Eastman Kodak Company, priority 1994, dated 1996).

What all share (type): physicochemical
Data set [1] can be described thus: Thermal stability: retained blocked developing agent by HPLC after incubation (Examples 3-5). To be noted: 1 week at 100° F. and 50% relative humidity, 10080 min. On the procedure: Blocked p-phenylenediamine developing agents 1, 3 and 6 were incorporated in photographic elements and evaluated for image dye formation activity and stability under storage conditions. The photographic elements were prepared as follows. The developing agents were dissolved in a high vapor pressure organic solvent (ethyl acetate for compounds 1 and 6, cyclohexanone for compound 3). The solutions were subsequently emulsified in aqueous gelatin using Alkanol-XC (Du Pont) as a dispersing aid. The dispersions were formulated such that the developing agents were initially present at 3% by weight, gelatin at 4% by weight and Alkanol-XC at 0.4% by weight. The initial slurries were emulsified by passing the mixtures through a colloid mill using known procedures. The organic solvents were then removed by evaporation.
Sets of strips were incubated for 1 week at 100° F. and 50% relativ humidity, and then evaluated by high performance liquid chromatography for amount of retained blocked developing agent. Sensitometry was obtained for step-tablet white-light exposures by contacting the strips with an activator solution at 77° F. The activator solution had the following composition:
The imaging activity and thermal stability of the exemplary blocked developing agents are given in Table V. The thermal stability denotes the percent retention, that is, the relative amount of blocked developing agent remaining after incubation, relative to the amount of developing agent initially coated.

A short description of data set [2]: Deblocking / dye release from ballasted blocked filter dye coating in alkaline buffer flow cell (Example 2). To be noted: for % reaction after 400 sec.: 6.66667 min. As to the method:
DOC Gelatin (2700 mg/m^2)
FILTER DYE LAYER Gelatin (3780 mg/m^2)
bis(vinylsulfonylmethyl)ether
FILMBASE polyacetate-butyrate
Coating strips were suspended in a flow cell while alkaline buffer solutions at 40° C. were passed through it. As deblocking proceeded, the yellow color of the strips was reduced as the water-solublefilter dye was released and washed out of the film.

Data set [3] is described as follows: Accelerated keeping test of coatings, raw stock stability (Example 2). The conditions noted are these: 2 weeks at 50° C. and 50% relative humidity; 20160 min. The source says: Coatings containing compound 32 as described above were also subjected to accelerated keeping tests to determine raw stock stability.
Data set [4] in a line: Ester cleavage rate in solution without and with hydrogen peroxide (Example 1). To be noted: pH 10 solution, 25° C., 5% CH3CN aqueous solution.
Method: ^a 5% CH3 CN aqueous solution
nonionic surfactant micellar solution
^c pH 10 solution, 25° C.

In turn, `CCN(CCNS(C)(=O)=O)c1ccc(NC(=O)OCc2ccc(OC(=O)C(C)(C)C)c(NS(C)(=O)=O)c2)c(C)c1` [compound 1] returned a Retention in data set [1] of 100%.

Regarding `CCCCCCCCCCCCCCCCS(=O)(=O)Nc1ccc(C(=O)Nc2cc(COC(=O)Nc3cc(N(C)C)ccc3N=Nc3cccc(C(=O)O)c3)ccc2OC(=O)CC)cc1` [compound 32], the t1/2 in data set [2] (pH 10, 0.2 N H2O2, 40° C.) was 3.67 min; in data set [2] (pH 10, no H2O2, 40° C.) it was “very long”; in data set [2] (pH 10.7, 0.2 N H2O2, 40° C.), 1.17 min; in data set [2] (pH 10.7, no H2O2, 40° C.), 13 min. Moreover, the “% reaction after 400 sec.” value in data set [2] (pH 10, 0.2 N H2O2, 40° C.) turned out to be 77%; in data set [2] (pH 10, no H2O2, 40° C.) it was 3%; in data set [2] (pH 10.7, 0.2 N H2O2, 40° C.), 100%; in data set [2] (pH 10.7, no H2O2, 40° C.), 31%. Also, the recovery after storage result in data set [3] is “greater than 93%”.

In the case of `CCC(=O)Oc1ccc(COC(=O)Nc2ccc(N(CC)CCNS(C)(=O)=O)cc2C)cc1NC(=O)c1ccc(NS(C)(=O)=O)cc1` [compound 6], the Retention in data set [1] is listed as 100%.

In turn, `CCN(CCNS(C)(=O)=O)c1ccc(NC(=O)OCc2ccc(OC(=O)C(C)C)c(NC(=O)CCCC(=O)O)c2)c(C)c1` [compound 3] came in with a Retention in data set [1] of 98%.

With `CC(C)(C)C(=O)Oc1ccc([N+](=O)[O-])cc1` [p-nitrophenyl pivalate], the “t1/2, 0.1M H2O2” value in data set [4] (0.1M H2O2) stood at 0.0113 min. Further, in data set [4] (no H2O2), the “t1/2, no H2O2” value is 95 min.
